According to patent US4493843A, “Indole and indoline carboxylic acid compounds and method of use” (May & Baker Limited, priority 1980, dated 1985):
Where a name gives a salt, the structure may show the parent alone. Read-outs that look alike come from different tables or passages of the source.

Tested on: serum cholesterol and serum triglycerides
Experiment: Hypolipidaemic activity in rats (compound in diet, last 7 of 10 days)
Format: in vivo, Male Wistar rats
Settings: 7 days; for change in vivo at 0.2 % strength / change in vivo at 0.1 % strength: Rattus norvegicus, po, 168 h; for change in vivo at 0.1 % strength: 0.1 % w/w dose in diet
Description: Hypolipidaemic Activity in Rats
Male Wistar rats each weighing between 120 and 150 g were caged in groups of eight and fed a powdered diet for 10 days. For the last 7 days of that period the test compound was administered orally by mixing the compound in the diet and allowing the animals to feed normally. Food consumption was measured on day 9 for each group.
At noon on day 10 the animals were killed by inhalation of carbon dioxide from solid carbon dioxide. A sample of blood was removed by cardiac puncture and the serum cholesterol and serum triglycerides were analysed by means of an autoanalyser.
Control groups (receiving only the normal, unmedicated diet) were included with each test.
The percentage reductions in the concentrations of serum cholesterol and serum triglycerides were calculated by comparison with the simultaneous controls, for each concentration of the test compound used.

[1] = 0.2 % w/w dose in diet, read-out: % change in serum cholesterol compared with control
[2] = 0.2 % w/w dose in diet, read-out: % change in serum triglycerides compared with control
[3] = read-out: % change in serum cholesterol compared with control
[4] = read-out: % change in serum triglycerides compared with control

SMILES	change in vivo at 0.2 % strength [1]	change in vivo at 0.2 % strength [2]	also measured
CCCCCCCCCCCCC1CNc2cc(C(=O)O)ccc21 (racemic) [Compound CAA, (RS)-3-(n-dodecyl)indoline-6-carboxylic acid]	-28%	-46%	–
CCCCCCCC1Cc2cc(C(=O)O)ccc2N1 (racemic) [Compound ABB, (RS)-2-(n-heptyl)indoline-5-carboxylic acid]	-18%	-34%	–
CCCCCCCCCCCCc1cc2cc(C(=O)OC)ccc2[nH]1 [Compound AVV, methyl 2-(n-dodecyl)indole-5-carboxylate]	-21%	-80%	change in vivo at 0.1 % strength [3]: -16%; change in vivo at 0.1 % strength [4]: -65%
CCCCCCCCCCCCCCCc1cc2cc(C(=O)OCCCC)ccc2[nH]1 [Compound HH, n-butyl 2-(n-pentadecyl)indole-5-carboxylate]	-24%	-50%	–
CCCCCCCCCCCCCCCC1CNc2cc(C(=O)O)ccc21 (racemic) [Compound BZZ, (RS)-3-(n-pentadecyl)indoline-6-carboxylic acid]	-1%	-29%	–
CCCCCCCCCCCCCc1cc2ccc(C(=O)O)cc2[nH]1 [Compound A, 2-(n-tridecyl)indole-6-carboxylic acid]	-26%	-33%	–
CCCCCCCc1cc2ccc(C(=O)O)cc2[nH]1 [Compound R, 2-(n-heptyl)indole-6-carboxylic acid]	-12%	-18%	–
CCCCCCCCCCc1cc2cc(C(=O)O)ccc2[nH]1 [Compound M, 2-(n-decyl)indole-5-carboxylic acid]	-26%	-65%	–
CCCCCCCCc1cc2cc(C(=O)O)ccc2[nH]1 [Compound X, 2-(n-octyl)indole-5-carboxylic acid]	-18%	-25%	–
CCCCCCCCc1c[nH]c2cc(C(=O)O)ccc12 [Compound BEE, 3-(n-octyl)indole-6-carboxylic acid]	-19%	-18%	–
CCCCCCCCCC(C)c1cc2ccc(C(=O)O)cc2[nH]1 (racemic) [Compound VV, (RS)-2-(1-methyldecyl)indole-6-carboxylic acid]	-40%	-73%	–
CCCCCCCCCCCCCCCCCCCCCCCc1cc2cc(C(=O)O)ccc2[nH]1 [Compound QQ, 2-(n-tricosyl)indole-5-carboxylic acid]	-16%	-36%	–
CCCCCCCCCCCCCCCc1cc2cc(C(=O)OC)ccc2[nH]1 [Compound LL, methyl 2-(n-pentadecyl)indole-5-carboxylate]	-16%	-22%	change in vivo at 0.1 % strength [3]: -13%; change in vivo at 0.1 % strength [4]: -32%
CCCCCCCCCCCCc1cc2ccc(C(=O)OCC)cc2[nH]1 [Compound CC, ethyl 2-(n-dodecyl)indole-6-carboxylate]	-17%	-57%	–
CCCCCCCCCCCCCCCc1cc2c(C(=O)O)cccc2[nH]1 [Compound J, 2-(n-pentadecyl)indole-4-carboxylic acid]	-9%	-2%	–
CCCCCCCCCCCCCCCCCc1cc2ccc(C(=O)O)cc2[nH]1 [Compound B, 2-(n-heptadecyl)indole-6-carboxylic acid]	5%	-4%	–
CCCCCCCCCCCCCCCc1cc2c(C(=O)OCC)cccc2[nH]1 [Compound EE, ethyl 2-(n-pentadecyl)indole-4-carboxylate]	-5%	-2%	–
CCCCCCCCCCCc1cc2cc(C(=O)OCCCC)ccc2[nH]1 [Compound AUU, n-butyl 2-(n-undecyl)indole-5-carboxylate]	-14%	-57%	–
CCCCCCCCCCCCCCCCc1c[nH]c2ccc(C(=O)OC)cc12 [Compound BCC, methyl 3-(n-hexadecyl)indole-5-carboxylate]	2%	16%	–
CCCCCCCCC1CNc2cc(C(=O)O)ccc21 (racemic) [Compound CCC, (RS)-3-(n-octyl)indoline-6-carboxylic acid]	-11%	-28%	–
CCCCCCCCCCCCc1cc2ccc(C(=O)O)cc2[nH]1 [Compound S, 2-(n-dodecyl)indole-6-carboxylic acid]	-26%	-52%	–
CCCCCCCCCCCCCCCc1cc2cc(C(=O)OCC)ccc2[nH]1 [Compound BB, ethyl 2-(n-pentadecyl)indole-5-carboxylate]	-19%	-39%	–

SMILES	change in vivo at 0.2 % strength [1]	change in vivo at 0.2 % strength [2]	also measured
CCCCCCCCc1cc2ccc(C(=O)O)cc2[nH]1 [Compound P, 2-(n-octyl)indole-6-carboxylic acid]	-32%	-37%	–
CCCCCCCCCCCCCCCCCCC1CNc2ccc(C(=O)O)cc21 (racemic) [Compound BOO, (RS)-3-(n-octadecyl)indoline-5-carboxylic acid]	3%	9%	–
CCCCCCCCCCCC1Cc2ccc(C(=O)O)cc2N1 (racemic) [Compound AFF, (RS)-2-(n-undecyl)indoline-6-carboxylic acid]	-38%	-58%	–
CCCCCCCCCCCCCCCCCCc1cc2ccc(C(=O)O)cc2[nH]1 [Compound V, 2-(n-octadecyl)indole-6-carboxylic acid]	3%	-1%	–
CCCCCCCCCCCc1cc2ccc(C(=O)O)cc2[nH]1 [C sodium salt]	–	–	% change in serum cholesterol compared with control (0.2 % w/w dose in diet, oral): -41%; % change in serum triglycerides compared with control (0.2 % w/w dose in diet, oral): -46%
CCCCCCCCc1c[nH]c2ccc(C(=O)O)cc12 [Compound BTT, 3-(n-octyl)indole-5-carboxylic acid]	0%	15%	–
CCCCCCCCCCCc1cc2ccc(C(=O)OCC)cc2[nH]1 [Compound FF, ethyl 2-(n-undecyl)indole-6-carboxylate]	-13%	-40%	–
CCCCCCCCCc1cc2cccc(C(=O)O)c2[nH]1 [Compound WW, 2-(n-nonyl)indole-7-carboxylic acid]	-3%	45%	–
CCCCCCCCCCCCCCCc1cc2cccc(C(=O)O)c2[nH]1 [Compound I, 2-(n-pentadecyl)indole-7-carboxylic acid]	-26%	-33%	–
CCCCCCCC1Cc2ccc(C(=O)O)cc2N1 (racemic) [Compound AEE, (RS)-2-(n-heptyl)indoline-6-carboxylic acid]	-22%	-37%	–
CCCCCCCc1cc2cc(C(=O)OCC)ccc2[nH]1 [Compound DD, ethyl 2-(n-heptyl)indole-5-carboxylate]	-6%	-25%	–
CCCCCCCCCCCC1Cc2cc(C(=O)O)ccc2N1C (racemic) [Compound BJJ, (RS)-1-methyl-2-(n-undecyl)indoline-5-carboxylic acid]	-15%	-41%	–
CCCCCCCCCCCC1Cc2ccc(C(=O)O)cc2N1C (racemic) [Compound BII, (RS)-1-methyl-2-(n-undecyl)indoline-6-carboxylic acid]	0%	-30%	–
CCCCCCCCCCCCCCCC1Cc2cc(C(=O)O)ccc2N1 (racemic) [Compound AAA, (RS)-2-(n-pentadecyl)indoline-5-carboxylic acid]	-12%	-55%	–
CCCCCCCCCCc1cc2ccc(C(=O)O)cc2[nH]1 [Compound N, 2-(n-decyl)indole-6-carboxylic acid]	-20%	-45%	–
CCCCCCCCCCCCCCCCC1CNc2ccc(C(=O)OC)cc21 (racemic) [Compound BNN, (RS)-methyl 3-(n-hexadecyl)indoline-5-carboxylate]	7%	-20%	–
CCCCCCCCCCCCCCCc1cc2ccc(C(=O)OC)cc2[nH]1 [Compound ANN, methyl 2-(n-pentadecyl)indole-6-carboxylate]	1%	-25%	–
CCCCCCCCCc1cc2c(C(=O)O)cccc2[nH]1 [Compound Z, 2-(n-nonyl)indole-4-carboxylic acid]	-14%	-14%	–
CCCCCCCc1cc2ccc(C(=O)OC)cc2[nH]1 [Compound AII, methyl 2-(n-heptyl)indole-6-carboxylate]	7%	20%	–
CCCCCCCCCCCC1Nc2cc(C(=O)O)ccc2C1C (stereo not drawn) [Compound CNN, 2(RS),3(RS)-2-(n-undecyl)-3-methylindoline-6-carboxylic acid]	-31%	-72%	–
CCCCCCCCCC(C)c1cc2cc(C(=O)O)ccc2[nH]1 (racemic) [Compound RR, (RS)-2-(1-methyldecyl)indole-5-carboxylic acid]	-7%	-88%	–
